Laboratory results: patent publication US8785457B2 (Cellzome Limited, priority 2009, dated 2014)
Like-named read-outs stand apart in the source and are kept apart here.

Columns and labels:
Type in all cases: binding
PI3Kalpha (PI3Ka) = molecular target: T1, PI3Kalpha (PI3Ka) (Homo sapiens, UniProt P42336); assay: kinobeads assay, PI3Kalpha; details: kinobeads assay, Table 6; for IC50: read-out: Inhibition values (IC50) PI3Ka
T1 construct: endogenous in cells; host or cells: cell lysate
Method in brief: (§1)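 Read-out is multiplexed immunodetection of kinase eluted from phenylmorpholin-chromen ligand beads after their incubation in cell lysate with test compound at various concentrations. Reduced capture reflects competition, and per-kinase dose-response curves yield IC50.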

PI3 Kbeta (PI3 Kb) = molecular target: T2, PI3 Kbeta (PI3 Kb) (Homo sapiens, UniProt P42338); assay: kinobeads assay, PI3Kbeta; details: kinobeads assay, Table 6; read-out: Inhibition values (IC50) PI3Kb
T2 construct: endogenous in cells; host or cells: cell lysate
Method in brief: as §1

[1] = molecular target: T3, DNA-dependent protein kinase (DNA-PK) (Homo sapiens, UniProt P78527); assay: kinobeads assay, DNA-PK; details: kinobeads assay
T3 construct: endogenous in cells; host or cells: Jurkat, clone E6-1 (ATCC TIB-152) cell lysate
Method in brief: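 Competitive binding in Jurkat cell lysate (5 mg/ml total protein): test compounds at various concentrations competed with beads bearing immobilized phenylmorpholin-chromen ligand. Bead-bound kinases were eluted and quantified by antibody dot blot with infrared detection; IC50 values came from dose-response curves.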

[2] = Table 6, read-out: Inhibition values (IC50) DNAPK
[3] = Table 4, read-out: Inhibition values (IC50) DNA-PK

T2 sequence (P42338 whole entry): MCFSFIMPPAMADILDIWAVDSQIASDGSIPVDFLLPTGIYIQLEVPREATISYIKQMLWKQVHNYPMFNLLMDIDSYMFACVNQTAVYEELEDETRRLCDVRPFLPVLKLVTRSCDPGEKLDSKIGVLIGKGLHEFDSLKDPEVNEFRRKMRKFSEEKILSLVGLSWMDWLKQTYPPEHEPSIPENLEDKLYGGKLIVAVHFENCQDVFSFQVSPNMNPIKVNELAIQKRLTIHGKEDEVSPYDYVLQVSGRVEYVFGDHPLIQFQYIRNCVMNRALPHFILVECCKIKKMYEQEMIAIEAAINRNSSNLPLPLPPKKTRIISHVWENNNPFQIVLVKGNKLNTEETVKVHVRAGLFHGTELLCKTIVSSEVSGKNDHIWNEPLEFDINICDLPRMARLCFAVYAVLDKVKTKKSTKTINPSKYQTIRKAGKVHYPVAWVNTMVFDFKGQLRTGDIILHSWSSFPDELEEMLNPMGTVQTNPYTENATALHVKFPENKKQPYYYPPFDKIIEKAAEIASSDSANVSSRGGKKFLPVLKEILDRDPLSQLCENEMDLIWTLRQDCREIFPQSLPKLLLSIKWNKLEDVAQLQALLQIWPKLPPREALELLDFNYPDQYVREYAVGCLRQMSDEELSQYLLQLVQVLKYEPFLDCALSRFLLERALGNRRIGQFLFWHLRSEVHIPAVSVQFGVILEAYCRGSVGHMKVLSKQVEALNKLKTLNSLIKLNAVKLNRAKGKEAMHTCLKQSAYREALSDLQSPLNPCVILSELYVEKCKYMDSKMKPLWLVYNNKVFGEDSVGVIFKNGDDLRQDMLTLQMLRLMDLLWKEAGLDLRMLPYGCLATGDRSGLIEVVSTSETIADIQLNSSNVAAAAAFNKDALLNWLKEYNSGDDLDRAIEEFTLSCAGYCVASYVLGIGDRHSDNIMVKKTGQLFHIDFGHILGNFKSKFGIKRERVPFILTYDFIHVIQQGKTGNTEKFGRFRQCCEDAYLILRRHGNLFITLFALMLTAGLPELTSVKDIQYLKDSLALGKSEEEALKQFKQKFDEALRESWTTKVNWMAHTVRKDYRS
T2 sequence (P27986 whole entry partner): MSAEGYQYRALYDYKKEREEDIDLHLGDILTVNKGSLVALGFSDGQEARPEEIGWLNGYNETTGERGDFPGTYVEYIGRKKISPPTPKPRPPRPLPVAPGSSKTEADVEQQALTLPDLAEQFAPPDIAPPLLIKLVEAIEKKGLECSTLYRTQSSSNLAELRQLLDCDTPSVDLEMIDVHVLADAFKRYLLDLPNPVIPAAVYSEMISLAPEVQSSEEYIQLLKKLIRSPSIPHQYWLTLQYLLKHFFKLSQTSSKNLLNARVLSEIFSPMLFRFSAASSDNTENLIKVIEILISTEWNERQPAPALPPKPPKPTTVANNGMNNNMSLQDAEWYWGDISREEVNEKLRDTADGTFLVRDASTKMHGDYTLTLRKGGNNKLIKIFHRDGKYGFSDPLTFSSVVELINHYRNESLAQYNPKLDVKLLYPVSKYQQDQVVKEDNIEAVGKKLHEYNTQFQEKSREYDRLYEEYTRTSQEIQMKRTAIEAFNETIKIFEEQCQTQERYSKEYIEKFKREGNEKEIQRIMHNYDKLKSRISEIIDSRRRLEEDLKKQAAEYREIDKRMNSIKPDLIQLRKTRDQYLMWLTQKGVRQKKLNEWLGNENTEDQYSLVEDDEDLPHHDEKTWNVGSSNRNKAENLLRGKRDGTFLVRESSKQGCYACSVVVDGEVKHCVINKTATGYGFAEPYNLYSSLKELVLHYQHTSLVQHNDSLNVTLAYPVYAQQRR
T1 sequence (P42336 whole entry): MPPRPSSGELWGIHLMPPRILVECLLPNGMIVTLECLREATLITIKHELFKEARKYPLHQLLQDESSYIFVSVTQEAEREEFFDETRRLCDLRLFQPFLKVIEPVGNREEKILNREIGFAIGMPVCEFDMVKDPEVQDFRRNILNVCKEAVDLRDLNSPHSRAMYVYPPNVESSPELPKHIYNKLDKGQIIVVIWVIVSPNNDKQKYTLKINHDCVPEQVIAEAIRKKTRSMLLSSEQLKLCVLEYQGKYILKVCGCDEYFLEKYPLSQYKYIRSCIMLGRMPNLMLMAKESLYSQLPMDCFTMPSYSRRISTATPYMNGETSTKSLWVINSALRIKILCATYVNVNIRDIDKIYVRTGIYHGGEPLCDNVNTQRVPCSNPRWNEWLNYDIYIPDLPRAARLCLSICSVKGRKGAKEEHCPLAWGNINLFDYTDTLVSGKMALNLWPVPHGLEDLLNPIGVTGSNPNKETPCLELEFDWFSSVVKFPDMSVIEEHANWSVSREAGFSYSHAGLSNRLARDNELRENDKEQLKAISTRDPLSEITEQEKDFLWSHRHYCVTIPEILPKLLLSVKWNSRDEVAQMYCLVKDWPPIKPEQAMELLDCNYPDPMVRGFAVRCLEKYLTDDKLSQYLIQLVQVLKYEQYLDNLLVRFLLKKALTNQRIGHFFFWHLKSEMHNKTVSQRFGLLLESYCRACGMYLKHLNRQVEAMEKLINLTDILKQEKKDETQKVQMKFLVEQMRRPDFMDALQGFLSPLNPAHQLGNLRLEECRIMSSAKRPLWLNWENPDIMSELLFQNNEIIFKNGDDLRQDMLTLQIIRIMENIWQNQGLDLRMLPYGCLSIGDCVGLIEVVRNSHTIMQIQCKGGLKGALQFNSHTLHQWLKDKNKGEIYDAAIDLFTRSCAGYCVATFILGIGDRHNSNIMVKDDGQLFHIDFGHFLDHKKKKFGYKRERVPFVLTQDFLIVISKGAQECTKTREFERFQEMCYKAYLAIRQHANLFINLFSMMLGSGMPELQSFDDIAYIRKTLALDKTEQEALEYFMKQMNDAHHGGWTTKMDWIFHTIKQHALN
T1 sequence (P27986 whole entry partner): as the sequence (P27986 whole entry partner) above

| Inhibition values (IC50) PI3Ka (PI3Kalpha (PI3Ka)) | IC50 (PI3 Kbeta (PI3 Kb)) [µM] | IC50 [1, 2] [µM] | IC50 (PI3Kalpha (PI3Ka)) [µM] | IC50 [1, 3] [µM] | SMILES |
| --- | --- | --- | --- | --- | --- |
| D (D >10 μM) | > 10 | > 10 |  |  | CCNC(=O)Nc1ccc(-c2nc3c(c(N4CCOC[C@@H]4C)n2)CN(C(=O)OCC)CC3)cc1 [Example 107, (S)-ethyl 2-(4-(3-ethylureido)phenyl)-4-(3-methylmorpholino)-7,8-dihydropyrido[4,3-d]pyrimidine-6(5H)-carboxylate] |
| D (D >10 μM) | > 10 | > 10 |  |  | CCNC(=O)Nc1ccc(-c2nc3c(c(N4CCOC[C@@H]4C)n2)CN(C(=O)OCC)C3)cc1F [Example 103, (S)-ethyl-2-(4-(3-ethylureido)-3-fluorophenyl)-4-(3-methylmorpholino)-5H-pyrrolo[3,4-d]pyrimidine-6(7H)-carboxylate] |
| D (D >10 μM) | > 10 | > 10 |  |  | CCNC(=O)Nc1ccc(-c2nc3c(c(N4CCOC[C@@H]4C)n2)CCN(C(=O)NCC)C3)cc1 [Example 87, (S)—N-ethyl-2-(4-(3-ethylureido)phenyl)-4-(3-methylmorpholino)-5,6-dihydropyrido[3,4-d]pyrimidine-7(8H)-carboxamide] |
|  | > 10 | > 10 | 1 to 10 |  | CCNC(=O)Nc1ccc(-c2nc3c(c(N4CCOCC4)n2)CN(C(=O)C(C)(C)C)C3)cc1 [Example 100, 1-ethyl-3-(4-(4-morpholino-6-pivaloyl-6,7-dihydro-5H-pyrrolo[3,4-d]pyrimidin-2-yl)phenyl)urea] |
| D (D >10 μM) | > 10 | > 10 |  |  | CCOC(=O)N1Cc2nc(-c3ccc(NC(=O)NCCF)cc3)nc(N3CCOC[C@@H]3C)c2C1 [Example 120, (S)-ethyl 2-(4-(3-(2-fluoroethyl)ureido)phenyl)-4-(3-methylmorpholino)-5H-pyrrolo[3,4-d]pyrimidine-6(7H)-carboxylate] |
| D (D >10 μM) | > 10 | > 10 |  |  | CCNC(=O)Nc1ccc(-c2nc3c(c(N4CCOC[C@@H]4C)n2)CCN(C(=O)Cc2cccnc2)C3)cc1 [Example 91, (S)-1-ethyl-3-(4-(4-(3-methylmorpholino)-7-(2-(pyridin-3-yl)acetyl)-5,6,7,8-tetrahydropyrido[3,4-d]pyrimidin-2-yl)phenyl)urea] |
|  | > 10 | > 10 | 1 to 10 |  | C[C@H]1COCCN1c1nc(-c2ccc(NC(=O)Nc3ccn(C)n3)cc2)nc2c1CN(C)C2 [Example 84, (S)-1-(1-methyl-1H-pyrazol-3-yl)-3-(4-(6-methyl-4-(3-methylmorpholino)-6,7-dihydro-5H-pyrrolo[3,4-d]pyrimidin-2-yl)phenyl)urea] |
| D (D >10 μM) | > 10 | > 10 |  |  | CCNC(=O)Nc1ccc(-c2nc3c(c(N4CCOC[C@@H]4C)n2)CN(C(C)C)C3)cc1 [Example 74, (S)-1-ethyl-3-(4-(6-isopropyl-4-(3-methylmorpholino)-6,7-dihydro-5H-pyrrolo[3,4-d]pyrimidin-2-yl)phenyl)urea] |
| D (D >10 μM) | > 10 | > 10 |  |  | CCNC(=O)Nc1ccc(-c2nc3c(c(N4CCOC[C@@H]4C)n2)CCN(CC(C)C)C3)cc1.O=CO [Example 76, (S)-1-ethyl-3-(4-(7-isobutyl-4-(3-methylmorpholino)-5,6,7,8-tetrahydropyrido[3,4-d]pyrimidin-2-yl)phenyl)urea formate] |
| D (D >10 μM) | > 10 | > 10 |  |  | CCNC(=O)Nc1ccc(-c2nc3c(c(N4CCOC[C@@H]4C)n2)CCN(C)C3)c(F)c1 [Example 110, (S)-1-ethyl-3-(3-fluoro-4-(7-methyl-4-(3-methylmorpholino)-5,6,7,8-tetrahydropyrido[3,4-d]pyrimidin-2-yl)phenyl)urea] |
| D (D >10 μM) | > 10 | > 10 |  |  | CCNC(=O)Nc1ccc(-c2nc3c(c(N4CCOC[C@@H]4C)n2)CN(CC(C)C)C3)cc1 [Example 66, (S)-1-ethyl-3-(4-(6-isobutyl-4-(3-methylmorpholino)-6,7-dihydro-5H-pyrrolo[3,4-d]pyrimidin-2-yl)phenyl)urea] |
| D (D >10 μM) | > 10 | > 10 |  |  | CCNC(=O)Nc1ccc(-c2nc3c(c(N4CCOC[C@@H]4C)n2)CN(C2CCN(C(=O)OC)CC2)C3)cc1F [Example 122, (S)-methyl 4-(2-(4-(3-ethylureido)-3-fluorophenyl)-4-(3-methylmorpholino)-5H-pyrrolo[3,4-d]pyrimidin-6(7H)-yl)piperidine-1-carboxylate] |
| D (D >10 μM) | > 10 | > 10 |  |  | CCNC(=O)Nc1ncc(-c2nc3c(c(N4CCOC[C@@H]4C)n2)CCN(C)C3)s1 [Example 106, (S)-1-ethyl-3-(5-(7-methyl-4-(3-methylmorpholino)-5,6,7,8-tetrahydropyrido[3,4-d]pyrimidin-2-yl)thiazol-2-yl)urea] |
| D (D >10 μM) | > 10 | > 10 |  |  | CCNC(=O)Nc1ccc(-c2nc3c(c(N4CCOC[C@@H]4C)n2)CN(C(=O)OCC)C3)cc1 [Example 90, (S)-ethyl 2-(4-(3-ethylureido)phenyl)-4-(3-methylmorpholino)-5H-pyrrolo[3,4-d]pyrimidine-6(7H)-carboxylate] |
| D (D >10 μM) | > 10 | > 10 |  |  | COC(=O)N1Cc2nc(-c3ccc(NC(=O)NC4CC4)cc3)nc(N3CCOC[C@@H]3C)c2C1 [Example 86, (S)-methyl 2-(4-(3-cyclopropylureido)phenyl)-4-(3-methylmorpholino)-5H-pyrrolo[3,4-d]pyrimidine-6(7H)-carboxylate] |
| D (D >10 μM) | > 10 | > 10 |  | > 10 | CCNC(=O)Nc1ccc(-c2nc3c(c(N4CCOC[C@@H]4C)n2)CCN(C(=O)C(C)(C)C)C3)cc1 [Example 58, (S)-1-ethyl-3-(4-(4-(3-methylmorpholino)-7-pivaloyl-5,6,7,8-tetrahydropyrido[3,4-d]pyrimidin-2-yl)phenyl)urea] |
| D (D >10 μM) | > 10 | > 10 |  | > 10 | CC(C)C(=O)N1CCc2c(nc(-c3ccc(NC(=O)NC4CC4)cc3)nc2N2CCOC[C@@H]2C)C1 [Example 61, (S)-1-cyclopropyl-3-(4-(7-isobutyryl-4-(3-methylmorpholino)-5,6,7,8-tetrahydropyrido[3,4-d]pyrimidin-2-yl)phenyl)urea] |
|  | 1 to 10 | 1 to 10 | 1 to 10 |  | CCNC(=O)Nc1ccc(-c2nc3c(c(N4CCOCC4)n2)CCN(C(C)=O)C3)cc1 [Example 97, 1-(4-(7-acetyl-4-morpholino-5,6,7,8-tetrahydropyrido[3,4-d]pyrimidin-2-yl)phenyl)-3-ethylurea] |
| D (D >10 μM) | > 10 | > 10 |  |  | CCNC(=O)N1CCc2c(nc(-c3ccc(NC(=O)NC4CC4)cc3)nc2N2CCOC[C@@H]2C)C1 [Example 88, (S)-2-(4-(3-cyclopropylureido)phenyl)-N-ethyl-4-(3-methylmorpholino)-5,6-dihydropyrido[3,4-d]pyrimidine-7(8H)-carboxamide] |
